Assay results as given in patent US10570131B2, “Heterocyclic compounds and their use in preventing or treating bacterial infections” (MUTABILIS, priority 2015, dated 2020).

How the values were obtained:
E. cloacae P99 [1] = experiment: MIC of ceftazidime alone and in combination with compounds (synergy), broth microdilution; format: cell-based; settings: MIC of ceftazidime with compound fixed at 4 μg/mL; strain P99 (AmpC)
AmpC (P99) = biological target: T1, AmpC (P99) (Enterobacter cloacae, UniProt P05364); experiment: biochemical
T1 construct: made in house; host or cells: E. coli expression vector
T1 sequence (P05364 21-381): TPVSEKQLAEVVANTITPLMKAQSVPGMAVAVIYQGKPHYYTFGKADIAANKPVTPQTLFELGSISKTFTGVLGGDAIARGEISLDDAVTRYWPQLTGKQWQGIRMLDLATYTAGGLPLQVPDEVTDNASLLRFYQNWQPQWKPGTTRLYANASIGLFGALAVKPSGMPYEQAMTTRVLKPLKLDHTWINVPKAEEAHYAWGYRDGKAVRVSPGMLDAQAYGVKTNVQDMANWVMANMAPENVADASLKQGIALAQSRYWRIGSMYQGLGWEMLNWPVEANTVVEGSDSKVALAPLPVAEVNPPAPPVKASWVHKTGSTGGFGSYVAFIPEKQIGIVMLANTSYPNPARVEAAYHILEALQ
Method: (§1) Method 1: β-lactamase Inhibitory Activity, Determination of IC50 (Table 1)
(§2) Enzyme activity was monitored by spectrophotometric measurement of nitrocefin (NCF—TOKU-E, N005) hydrolysis at 485 nm, at room temperature and in assay buffer A: 100 mM Phosphate pH7, 2% glycerol and 0.1 mg/mL Bovine serum albumin (Sigma, B4287). Enzymes were cloned in E. coli expression vector, expressed and purified in house using classical procedures. To a transparent polystyrene plate (Corning, 3628) were added in each well 5 μL DMSO or inhibitor dilutions in DMSO and 80 μL enzyme in buffer A. Plates were immediately read at 485 nm in a microplate spectrophotometer (BioTek, PowerWave HT) to enable background subtraction. After 30 min of pre-incubation at room temperature, 15 μL of NCF (200 μM final) were finally added in each well. Final enzyme concentrations were 0.1 nM (TEM-1), 0.075 nM (SHV-1), 0.4 nM (CTX-M-15), 1 nM (KPC-2), 0.2 nM (P99 AmpC), 0.2 nM (CMY-37), 0.4 nM (AmpC P. aeruginosa), 0.2 nM (OXA-1), 1.2 nM (OXA-11), 0.4 nM (OXA-15) and 0.3 nM (OXA-48). After 20 min incubation at room temperature, plates were once again read at 485 nm. Enzyme activity was obtained by subtracting the final signal by the background, and was converted to enzyme inhibition using non inhibited wells. IC50 curves were fitted to a classical Langmuir equilibrium model with Hill slope using XLFIT (IDBS).

OXA-15 = biological target: T2, OXA-15 (Pseudomonas aeruginosa, UniProt Q51574); experiment: biochemical
T2 construct: made in house; host or cells: E. coli expression vector
T2 sequence (Q51574 22-275): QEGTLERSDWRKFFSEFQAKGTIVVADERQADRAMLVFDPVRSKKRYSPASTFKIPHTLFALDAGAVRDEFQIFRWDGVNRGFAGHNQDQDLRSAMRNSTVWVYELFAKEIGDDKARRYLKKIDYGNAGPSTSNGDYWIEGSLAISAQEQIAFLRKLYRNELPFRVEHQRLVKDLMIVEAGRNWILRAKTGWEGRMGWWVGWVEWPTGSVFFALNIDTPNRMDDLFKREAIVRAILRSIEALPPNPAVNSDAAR
Method: as §1, §2

E. coli 190317 [2] = experiment: MIC of ceftazidime alone and in combination with compounds (synergy), broth microdilution; format: cell-based; settings: MIC of ceftazidime with compound fixed at 4 μg/mL; strain 190317 (TEM-1, SHV-12, CTX-M-15, OXA-1)
AmpC (PAE) = biological target: T3, AmpC (PAE) (Pseudomonas aeruginosa, UniProt P24735); experiment: biochemical; design: species or system P. aeruginosa
T3 construct: made in house; host or cells: E. coli expression vector
T3 sequence (P24735 27-397): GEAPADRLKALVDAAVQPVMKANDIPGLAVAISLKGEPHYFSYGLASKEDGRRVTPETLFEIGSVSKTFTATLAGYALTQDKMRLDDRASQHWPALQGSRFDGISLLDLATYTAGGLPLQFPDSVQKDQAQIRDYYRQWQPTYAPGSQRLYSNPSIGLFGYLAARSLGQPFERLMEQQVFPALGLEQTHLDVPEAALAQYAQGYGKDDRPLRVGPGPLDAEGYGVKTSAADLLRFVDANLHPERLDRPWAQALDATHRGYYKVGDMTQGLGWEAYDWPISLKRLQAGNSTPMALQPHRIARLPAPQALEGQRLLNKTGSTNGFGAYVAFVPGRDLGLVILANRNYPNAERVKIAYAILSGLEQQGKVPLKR
Method: as §1, §2

OXA-1 = biological target: T4, OXA-1 (Escherichia coli, UniProt P13661); experiment: β-lactamase inhibitory activity, IC50 (nitrocefin hydrolysis); format: biochemical
T4 construct: made in house; host or cells: E. coli expression vector
T4 sequence (P13661 26-276): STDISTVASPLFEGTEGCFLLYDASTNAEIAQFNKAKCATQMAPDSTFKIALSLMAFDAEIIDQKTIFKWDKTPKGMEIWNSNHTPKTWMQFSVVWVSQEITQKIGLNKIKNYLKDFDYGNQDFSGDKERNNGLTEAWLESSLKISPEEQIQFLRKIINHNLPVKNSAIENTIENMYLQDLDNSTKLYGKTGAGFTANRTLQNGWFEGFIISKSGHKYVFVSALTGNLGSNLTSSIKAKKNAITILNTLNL
Method: as §1, §2

SHV-1 = biological target: T5, SHV-1 (Klebsiella pneumoniae, UniProt P0AD64); experiment: as above; format: biochemical
T5 construct: made in house; host or cells: E. coli expression vector
T5 sequence (P0AD64 22-286): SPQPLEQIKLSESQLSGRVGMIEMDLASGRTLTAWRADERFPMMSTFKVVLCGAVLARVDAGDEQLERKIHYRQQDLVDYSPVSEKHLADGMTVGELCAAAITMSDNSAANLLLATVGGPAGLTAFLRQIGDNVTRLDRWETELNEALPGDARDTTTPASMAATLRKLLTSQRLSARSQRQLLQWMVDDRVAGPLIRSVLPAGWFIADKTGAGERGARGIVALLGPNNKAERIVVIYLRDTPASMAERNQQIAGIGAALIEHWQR
Method: as §1, §2

KPC-2 = biological target: T6, KPC-2 (Klebsiella pneumoniae, UniProt Q9F663); experiment: as above; format: biochemical
T6 construct: made in house; host or cells: E. coli expression vector
T6 sequence (Q9F663 25-293 limits assumed): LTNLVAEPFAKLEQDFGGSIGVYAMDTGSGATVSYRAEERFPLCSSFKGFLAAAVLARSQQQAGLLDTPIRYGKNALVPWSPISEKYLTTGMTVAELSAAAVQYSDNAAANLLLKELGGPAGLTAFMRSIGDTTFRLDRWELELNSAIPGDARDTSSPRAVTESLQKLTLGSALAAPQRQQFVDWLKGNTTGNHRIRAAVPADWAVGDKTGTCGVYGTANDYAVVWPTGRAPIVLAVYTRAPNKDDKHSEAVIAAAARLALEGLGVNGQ
Method: as §1, §2

OXA-11 = biological target: T7, OXA-11 (Pseudomonas aeruginosa, UniProt Q06778); experiment: as above; format: biochemical
T7 construct: made in house; host or cells: E. coli expression vector
T7 sequence (Q06778 21-266): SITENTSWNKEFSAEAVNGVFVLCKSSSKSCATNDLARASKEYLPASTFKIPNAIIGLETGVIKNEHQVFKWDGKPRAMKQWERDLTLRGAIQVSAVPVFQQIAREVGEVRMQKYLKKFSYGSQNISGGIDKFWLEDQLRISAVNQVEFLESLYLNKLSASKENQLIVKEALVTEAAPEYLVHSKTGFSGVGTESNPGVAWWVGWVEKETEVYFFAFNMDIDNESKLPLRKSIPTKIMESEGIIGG
Method: as §1, §2

TEM-1 = biological target: T8, TEM-1 (Escherichia coli, UniProt P62593); experiment: as above; format: biochemical; settings: class (A); 30 min pre-incubation; NCF 200 μM
T8 construct: made in house; host or cells: E. coli expression vector
T8 sequence (P62593 24-286 limits assumed): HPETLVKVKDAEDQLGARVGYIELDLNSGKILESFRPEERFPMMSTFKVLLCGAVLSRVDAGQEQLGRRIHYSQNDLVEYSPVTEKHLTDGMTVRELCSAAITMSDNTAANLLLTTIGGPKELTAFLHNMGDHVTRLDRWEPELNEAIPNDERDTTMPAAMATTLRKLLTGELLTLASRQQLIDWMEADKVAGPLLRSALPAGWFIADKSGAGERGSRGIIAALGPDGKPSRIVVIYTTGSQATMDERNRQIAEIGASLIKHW
Method: as §1, §2

OXA-48 = biological target: T9, OXA-48 (Klebsiella pneumoniae, UniProt Q6XEC0); experiment: as above; format: biochemical
T9 construct: made in house; host or cells: E. coli expression vector
T9 sequence (Q6XEC0 23-265 limits assumed): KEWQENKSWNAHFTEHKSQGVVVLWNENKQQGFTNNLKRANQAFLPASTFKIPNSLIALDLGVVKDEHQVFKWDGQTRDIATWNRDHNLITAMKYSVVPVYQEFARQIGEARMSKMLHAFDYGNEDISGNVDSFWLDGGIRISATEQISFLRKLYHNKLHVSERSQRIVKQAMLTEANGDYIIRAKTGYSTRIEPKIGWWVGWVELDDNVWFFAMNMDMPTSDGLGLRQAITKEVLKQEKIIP
Method: as §1, §2

CTX-M-15 = biological target: T10, CTX-M-15 (Escherichia coli, UniProt Q9EXV5); experiment: as above; format: biochemical
T10 construct: made in house; host or cells: E. coli expression vector
T10 sequence (Q9EXV5 entry or part of it): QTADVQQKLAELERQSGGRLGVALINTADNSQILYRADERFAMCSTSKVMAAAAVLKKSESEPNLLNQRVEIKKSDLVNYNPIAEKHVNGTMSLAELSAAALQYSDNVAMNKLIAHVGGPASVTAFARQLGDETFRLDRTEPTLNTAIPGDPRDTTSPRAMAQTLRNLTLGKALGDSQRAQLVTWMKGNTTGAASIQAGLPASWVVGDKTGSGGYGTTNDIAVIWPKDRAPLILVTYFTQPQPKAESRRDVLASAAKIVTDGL
Method: as §1, §2

K. pneumoniae BAA-1898 [3] = experiment: MIC of ceftazidime alone and in combination with compounds (synergy), broth microdilution; format: cell-based; settings: MIC of ceftazidime with compound fixed at 4 μg/mL; strain BAA-1898 (TEM-1, SHV-11, SHV-12, KPC-2)
Method: (§3) Compounds of the present invention were assessed against genotyped bacterial strains alone or in combination with the β-lactam ceftazidime (CAZ). […] Briefly, compounds alone according to the invention were prepared in DMSO and spotted (2 μL each) on sterile polystyrene plates (Corning, 3788). […] Log phase bacterial suspensions were adjusted to a final density of 5×10^5 cfu/mL in cation-adjusted Mueller-Hinton broth (Becton-Dickinson) and added to each well (98 μL). Microplates were incubated for 16-20 h at 35° C. in ambient air. The MIC of the compounds was defined as the lowest concentration of said compounds that prevented bacterial growth as read by visual inspection.

P. aeruginosa CIP107051 [4] = experiment: as above; format: cell-based; settings: MIC of ceftazidime with compound fixed at 4 μg/mL; strain CIP107051 (TEM-24)
Method: as §3

P. aeruginosa CIP105250 [5] = experiment: as above; format: cell-based; settings: MIC of ceftazidime with compound fixed at 4 μg/mL; strain CIP105250 (OXA-15)
Method: as §3

K. pneumoniae 6299 [6] = experiment: as above; format: cell-based; settings: MIC of ceftazidime with compound fixed at 4 μg/mL; strain 6299 (TEM-1, SHV-11, OXA-163)
Method: as §3

E. coli 190317 [7] = experiment: MIC of compounds alone, broth microdilution; format: cell-based; settings: Escherichia coli; strain 190317 (TEM-1, SHV-12, CTX-M-15, OXA-1); read-out: MIC compounds of the invention alone
Method: as §3

E. cloacae P99 [8] = experiment: MIC of compounds alone, broth microdilution; format: cell-based; settings: Enterobacter cloacae; strain P99 (AmpC); read-out: MIC compounds of the invention alone
Method: as §3

P. aeruginosa CIP107051 [9] = experiment: MIC of compounds alone, broth microdilution; format: cell-based; settings: Pseudomonas aeruginosa; strain CIP107051 (TEM-24); read-out: MIC compounds of the invention alone
Method: as §3

E. coli RGN238 = experiment: MIC of compounds alone, broth microdilution; format: cell-based; settings: Escherichia coli, RGN238, read-out: MIC compounds of the invention alone
Method: as §3

E. coli 131119 = experiment: microbe, parasite or virus in culture; format: cell-based; settings: Escherichia coli, 131119, read-out: MIC compounds of the invention alone
Method: as §3

K. pneumoniae BAA-1898 [10] = experiment: microbe, parasite or virus in culture; format: cell-based; settings: Klebsiella pneumoniae, BAA1898, read-out: MIC compounds of the invention alone
Method: as §3

P. aeruginosa CIP105250 [11] = experiment: microbe, parasite or virus in culture; format: cell-based; settings: Pseudomonas aeruginosa, CIP105250, read-out: MIC compounds of the invention alone
Method: as §3

K. pneumoniae 6299 [12] = experiment: microbe, parasite or virus in culture; format: cell-based; settings: Klebsiella pneumoniae, 6299, read-out: MIC compounds of the invention alone
Method: as §3

Structure (SMILES) | MIC, combination of CAZ and compounds of the invention at 4 μg/mL (E. cloacae P99 [1]) [µg/mL] | IC50 (AmpC (P99)) [nM] | IC50 (OXA-15) [nM] | MIC, combination of CAZ and compounds of the invention at 4 μg/mL (E. coli 190317 [2]) [µg/mL] | IC50 (AmpC (PAE)) [nM] | IC50 (OXA-1) [nM] | IC50 (SHV-1) [nM] | IC50 (KPC-2) [nM] | IC50 (OXA-11) [nM] | IC50 (TEM-1) [nM] | IC50 (OXA-48) [nM] | IC50 (CTX-M-15) [nM] | MIC, combination of CAZ and compounds of the invention at 4 μg/mL (K. pneumoniae BAA-1898 [3]) [µg/mL] | MIC, combination of CAZ and compounds of the invention at 4 μg/mL (P. aeruginosa CIP107051 [4]) [µg/mL] | MIC, combination of CAZ and compounds of the invention at 4 μg/mL (P. aeruginosa CIP105250 [5]) [µg/mL] | MIC, combination of CAZ and compounds of the invention at 4 μg/mL (K. pneumoniae 6299 [6]) [µg/mL] | MIC (E. coli 190317 [7]) [µg/mL] | MIC (E. cloacae P99 [8]) [µg/mL] | MIC (P. aeruginosa CIP107051 [9]) [µg/mL] | MIC (E. coli RGN238) [µg/mL] | further results
NC(=O)CON=C1C[C@@H](C(N)=O)N2C[C@@H]1N(OS(=O)(=O)[O-])C2=O.[Na+] (mixture of isomers) [Example 3, sodium [(2S, 5S)-4-(2-amino-2-oxo-ethoxy)imino-2-carbamoyl-7-oxo-1,6-diazabicyclo[3.2.1]octan-6-yl] sulfate] | 32 | 7.4 | 1.6 | ≤0.125 | 220 | 17 | 4.6 | 33 | 48 | 3 | 5.7 | 2 | 64 | 32 | 32 | 4 | > 32 | > 32 | > 32 | > 32 | MIC (E. coli 131119): > 32 µg/mL; MIC (K. pneumoniae BAA-1898 [10]): > 32 µg/mL; MIC (P. aeruginosa CIP105250 [11]): > 32 µg/mL; MIC (K. pneumoniae 6299 [12]): > 32 µg/mL
CNC(=O)CON=C1C[C@@H](C(=O)OC)N2C[C@@H]1N(OS(=O)(=O)[O-])C2=O.[Na+] (mixture of isomers) [Example 1, sodium [(2S,5S)-2-methoxycarbonyl-4-[2-(methylamino)-2-oxo-ethoxy]imino-7-oxo-1,6-diazabicyclo[3.2.1]octan-6-yl] sulfate] | 64 | 4.1 | 0.65 | 4 | 37 | 80 | 1.3 | 7.8 | 4.1 | 3.2 | 0.51 | 5.4 | 128 | 64 | 64 | 32 | > 32 | > 32 | > 32 | > 32 | MIC (E. coli 131119): > 32 µg/mL; MIC (K. pneumoniae BAA-1898 [10]): > 32 µg/mL; MIC (P. aeruginosa CIP105250 [11]): > 32 µg/mL; MIC (K. pneumoniae 6299 [12]): > 32 µg/mL
